This note sets out measurements from PubChem BioAssay AID434996 (Southern Research Specialized Biocontainment Screening …, 2010).

Experiment [1] in a line: PhoP-dependent GFP reporter suppression – synthesized compounds, round 3, SAR follow-up (AID 434996). Conditions: S. Typhimurium PhoP-regulated promoter GFP reporter, 4 h; at 150 µM (top of the series).
For experiment [2], the system named is S. Typhimurium PhoP-regulated promoter GFP reporter, 4 h. The description is as above.

Structures are written as SMILES. Active and inactive are the calls of the source.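 How the source made its calls: active means inhibition above 30% at one or more tested concentrations in the dose response; inactive means inhibition below 30% at every tested concentration.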

For `N#Cc1ccc(NC(=S)NCc2ccc(Cl)cc2)cc1`, the inhibition in experiment [1] was -4.09% (inactive).
Same read-out and setting: then `O=C(Nc1ccc(Cl)cc1)N1CCCN(Cc2ccccc2Br)C1`, with 26.3% (inactive).
Still for that read-out and setting: then `Cc1cccc(NC(=O)N2CCCN(Cc3ccccc3F)C2)c1`, with 21.2% (inactive).
Consider `O=C(Nc1ccc(I)cc1)N1CCCN(Cc2ccccc2F)C1`, for which the IC50 in experiment [2] was 148 µM.
The same measure, in the same setting: then `S=C(NCCc1ccc(Cl)cc1)Nc1ccncc1`, with 29.2 µM; and `O=C(Nc1ccc(Cl)cc1)N1CCCN(Cc2ccc(Br)cc2)C1`, with 135 µM.
On to `O=C(Nc1cccc(C(F)(F)F)c1)N1CCCN(Cc2ccccc2F)C1`, for which the inhibition in experiment [1] was 8.93% (inactive).
Same read-out and setting: the same measure for `N#Cc1ccccc1NC(=S)NCc1ccc(Cl)cc1`: -0.55% (inactive); for `O=C(Nc1cccc(I)c1)N1CCCN(Cc2ccccc2F)C1`: 20.6% (inactive); for `O=C(Nc1cccc(F)c1)N1CCCN(Cc2ccccc2F)C1`: 23.5% (inactive).
The same measure, in the same setting: then `Cc1ccc(NC(=O)N2CCCN(Cc3ccccc3F)C2)cc1`, with -3.01% (inactive); and `Cc1ccccc1CNC(=S)Nc1ccncc1`, with 15.3% (inactive).

Usually inhibition stands for the change of the read-out against control, counted positive when it falls. As a reminder, the IC50 is the midpoint of a concentration-inhibition curve.
